Results reported in article PMC3288053 (PLoS ONE, 2012).

Legend:
TC-PTP = molecular target: T1, TC-PTP (Homo sapiens, UniProt P17706); experiment: PTP enzyme inhibition assay (pNPP substrate); format: biochemical; settings: PTPs 0.3 µM, pNPP 5 mM, 25°C; NI: No inhibition at 100 µM
T1 construct: pGEX4T-1-TC-PTP1–288; GST (N); made in house; host or cells: E. coli BL21 (DE3)
Protocol: (§1) The enzymatic activities of the recombinant PTPs are measured at 25°C using pNPP as substrate. The initial velocities of enzymatic reactions are determined by continuously measuring the absorbance at 405 nm every 15 s using a microplate spectrophotometer (Bio-Rad). […] To determine the inhibition type, each concentration of Rut (0, 50 and 75 µM) is incubated with PTP1B (0.3 µM) in reaction buffer (50 mM HEPES, pH7.0, 1 mM EDTA, and 100 mM NaCl) for 10 min and the reactions are initiated by different concentrations of pNPP (0.5–10 mM). The inhibition type is determined using double-reciprocal plots. In determination of the selectivity of Rut against PTPs, the result is referred as no inhibition when 100 µM Rut inhibits no enzyme activity. The same reaction systems are designed for all PTPs including PTP1B.

LAR = molecular target: T2, LAR (Homo sapiens, UniProt P10586); experiment: PTP enzyme inhibition assay (pNPP substrate); format: biochemical; settings: read-out: IC50 LAR; PTPs 0.3 µM, pNPP 5 mM, 25°C; NI: No inhibition at 100 µM
T2 construct: pGEX2T-LAR1282–1888; GST (N); made in house; host or cells: E. coli BL21 (DE3)
T2 sequence (P10586 1301-1907 limits assumed): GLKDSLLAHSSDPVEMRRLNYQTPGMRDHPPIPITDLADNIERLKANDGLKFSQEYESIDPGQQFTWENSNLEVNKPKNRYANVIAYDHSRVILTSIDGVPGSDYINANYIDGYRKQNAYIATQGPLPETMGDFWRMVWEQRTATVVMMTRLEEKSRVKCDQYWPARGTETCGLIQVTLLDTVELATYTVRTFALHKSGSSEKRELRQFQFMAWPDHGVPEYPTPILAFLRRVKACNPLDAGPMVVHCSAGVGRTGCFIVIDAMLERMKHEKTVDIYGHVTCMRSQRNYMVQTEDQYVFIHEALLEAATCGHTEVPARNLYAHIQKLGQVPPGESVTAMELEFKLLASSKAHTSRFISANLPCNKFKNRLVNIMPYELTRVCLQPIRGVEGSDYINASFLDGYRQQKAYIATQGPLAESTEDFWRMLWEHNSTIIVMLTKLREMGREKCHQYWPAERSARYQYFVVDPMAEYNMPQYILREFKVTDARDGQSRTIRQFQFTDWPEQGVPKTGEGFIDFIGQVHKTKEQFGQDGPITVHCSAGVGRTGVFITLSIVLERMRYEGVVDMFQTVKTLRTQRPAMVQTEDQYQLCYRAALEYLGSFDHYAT
Protocol: as §1

[1] = tested on: GLUT4 in 3T3-L1 adipocytes; experiment: Western blot of GLUT4 protein level; format: cell-based; settings: Rut 20 µM
Protocol: Insulin sensitizing effects of Rut are investigated in CHO-K1 and 3T3-L1 adipocytes. After incubation with compounds in serum-free medium for indicated time, cells are stimulated with insulin (170 nM for CHO-K1 cells and 17 nM for 3T3-L1 adipocytes) for 5 min, and the stimulation is stopped by ice-cold PBS. The effect of Rut on insulin signaling is also investigated in CHO-K1 cells. In the assay, cells are stimulated with Rut (20 µM, 8 h) or insulin (170 nM, 5 min), and then lysed on ice. GLUT4 protein level is studied in the differentiated 3T3-L1 adipocytes (the 10th day after MDI stimulation). […] The proteins are resolved by SDS-polyacrylamide gel electrophoresis and electro-transferred to polyvinylidene difluoride membranes. The membrane is blocked by 5% skimmed milk and incubated with antibodies. Proteins are visualized by the ECL detecting system.

RXRα:RXRα = molecular target: T3, RXRα:RXRα (Homo sapiens, UniProt P19793); experiment: Transient transfection luciferase assay in HEK293 cells (RXRE); format: cell-based; settings: HEK293, 24 h
T3 construct: expressed in transfected cells; host or cells: HEK293
T3 sequence (P19793 whole entry): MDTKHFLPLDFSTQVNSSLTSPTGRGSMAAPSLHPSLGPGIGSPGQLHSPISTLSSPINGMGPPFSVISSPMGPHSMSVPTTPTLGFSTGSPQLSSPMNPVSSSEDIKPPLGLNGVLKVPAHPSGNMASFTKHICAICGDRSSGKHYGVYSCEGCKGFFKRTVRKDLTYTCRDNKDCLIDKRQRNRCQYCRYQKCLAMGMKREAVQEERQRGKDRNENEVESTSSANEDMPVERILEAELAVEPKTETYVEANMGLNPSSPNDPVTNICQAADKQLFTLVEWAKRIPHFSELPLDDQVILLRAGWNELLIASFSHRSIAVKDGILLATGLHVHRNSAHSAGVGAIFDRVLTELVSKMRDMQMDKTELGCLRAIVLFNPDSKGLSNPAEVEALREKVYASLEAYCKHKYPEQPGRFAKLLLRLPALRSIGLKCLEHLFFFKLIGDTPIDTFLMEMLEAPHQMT
Protocol: (§2) HEK293 cells are transiently transfected by Lipo2000 respectively with RXRα, PPARγ, FXR, and LXRα plasmids plus pGL3-RXRE luciferase vector and renilla luciferase vector for 5 hours. Cells are then incubated with indicated concentrations of compounds for another 24 h and finally lysed. Luciferase activities are measured using Dual Luciferase Assay System kit. Rut dose-dependently activates (a) RXRα:RXRα and (b) PPARγ:RXRα activities. Rut has no effects on (c) FXR: RXRα and (d) LXRα:RXRα activities. Data are presented as means ± s.e.m (*P<0.05, **P<0.01) from three independent experiments.
(§3) HEK293 cells are transfected with luciferase reporter plus Renilla luciferase vector and other plasmids if needed for 5 hours, and cells are then incubated with indicated concentrations of compounds for another 24 h. Finally cells are lysed and luciferase activities are measured using Dual Luciferase Assay System kit. The results are presented as the fold activation relative to untreated cells after normalization with Renilla luciferase values. Each experiment is repeated at least twice, with each sample analyzed in triplicates.

3T3-L1 adipocytes [2] = experiment: 2-Deoxyglucose uptake in 3T3-L1 adipocytes; format: cell-based
Protocol: 3T3-L1 adipocytes are fully differentiated (the 10th day after MDI stimulation) and seeded into 24-well plate. After incubation with compounds in serum-free medium containing 0.5% BSA for 8 hours, medium is changed to Krebs buffer containing […] insulin and incubated for 30 minutes. In the last 5 minutes, cells are incubated with 2-[^3H]-deoxy-D-glucose. The glucose uptake is stopped by ice-cold PBS, and the cells are then lysed with 0.1% Triton. Finally the radioactivity is calculated by a scintillation counter. Cytochalasin B is used to measure nonspecific uptake, and the value is subtracted from all the data. Radioactivity is normalized by total protein concentration that is measured by BCA kit.

3T3-L1 adipocytes [3] = experiment: GLUT4 translocation by immunofluorescence in 3T3-L1 adipocytes; format: cell-based; settings: Rut 20 µM, insulin 17 nM
Protocol: For GLUT4 translocation assay in 3T3-L1 adipocytes, the cells are fully differentiated (the 10th day after MDI stimulation), and seeded onto 24-well plates. After cultured in serum-free medium for 8 h, cells are incubated with Rut for 2 h and insulin for 10 min, and then rinsed with PBS, fixed with 4% formaldehyde for 10 min, and permeated with 0.2% Triton X-100 in PBS for 10 min. Cells are subsequently washed with PBS and 3% bovine serum albumin for 20 min, and sequentially incubated with primary antibody (Abcam GLUT4 antibody) for 1 h and secondary antibody (Alexa Fluor 488 conjuncted anti-mouse antibody) for another 1 h. Finally, the glass-slips are washed with PBS for examination using OLYMPUS FV-1000 confocal microscope. All pictures are made in the same time experiment.

[4] = molecular target: interaction of RXRα with SRC1 (Homo sapiens, UniProt P19793); experiment: Yeast two-hybrid assay; settings: AH109 strain, 48 hours
interaction of RXRα with SRC1, sequence (P19793 223-462 limits assumed): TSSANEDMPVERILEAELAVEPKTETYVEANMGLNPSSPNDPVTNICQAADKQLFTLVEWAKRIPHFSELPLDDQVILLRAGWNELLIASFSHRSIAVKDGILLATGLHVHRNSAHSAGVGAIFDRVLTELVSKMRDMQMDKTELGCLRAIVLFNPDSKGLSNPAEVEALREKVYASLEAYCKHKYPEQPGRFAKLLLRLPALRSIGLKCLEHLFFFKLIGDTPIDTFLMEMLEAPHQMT
interaction of RXRα with SRC1, sequence (Q15788 613-773 partner limits assumed): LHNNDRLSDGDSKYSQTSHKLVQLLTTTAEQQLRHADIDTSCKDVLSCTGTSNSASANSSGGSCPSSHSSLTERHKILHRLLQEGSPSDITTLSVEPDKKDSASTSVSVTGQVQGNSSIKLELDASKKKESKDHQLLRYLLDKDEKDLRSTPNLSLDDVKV
FXR: RXRα = molecular target: T4, FXR: RXRα (Homo sapiens, UniProt P19793+Q96RI1); experiment: Transient transfection luciferase assay in HEK293 cells (FXRE); format: cell-based; settings: HEK293, 24 h
T4 construct: expressed in transfected cells; host or cells: HEK293
T4 sequence (Q96RI1 whole entry): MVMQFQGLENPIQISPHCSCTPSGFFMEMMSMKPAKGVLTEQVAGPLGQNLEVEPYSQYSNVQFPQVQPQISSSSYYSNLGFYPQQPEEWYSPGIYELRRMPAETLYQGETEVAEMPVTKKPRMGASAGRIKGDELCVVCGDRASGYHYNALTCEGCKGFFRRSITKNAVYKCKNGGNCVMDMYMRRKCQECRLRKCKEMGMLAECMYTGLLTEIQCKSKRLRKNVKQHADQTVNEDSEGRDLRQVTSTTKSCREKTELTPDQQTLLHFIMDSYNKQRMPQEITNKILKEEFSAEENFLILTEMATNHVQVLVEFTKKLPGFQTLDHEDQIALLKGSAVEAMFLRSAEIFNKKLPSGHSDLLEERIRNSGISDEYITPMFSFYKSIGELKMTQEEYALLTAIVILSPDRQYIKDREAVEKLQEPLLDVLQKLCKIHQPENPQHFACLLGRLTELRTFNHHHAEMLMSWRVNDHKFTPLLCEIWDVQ
T4 sequence (P19793 whole entry): as the sequence (P19793 whole entry) above
Protocol: as §2, §3

epididymis fat tissues = experiment: Gene and protein expression in epididymis fat tissues of treated DIO mice; format: in vivo
Protocol: Four mice in each group are employed for the determination of gene expression. The total RNA is extracted from epididymis fat tissues (75 mg/mice) with TRIzol reagent, and the cDNA is synthesized using PrimeScript™ RT reagent Kit. Real-time PCR is performed using SYBR Green Real time PCR master mix on DNA Engine Opticon 2 System. The PCR cycle is 94°C for 20 seconds, 60°C for 30 seconds and 72°C for 30 seconds. The primer pairs for the related genes are described in Supplementary Table S2. The epididymis fat is lysed and the supernatant is separated by SDS-PAGE and transferred to polyvinylidene difluoride membranes (Millipore). Membranes are incubated in blocking buffer (BB) containing 5% skimmed milk with 0.5% Tween 20 in Tris-buffered saline and immunoblotted with the related antibodies overnight at 4°C in BB. After incubation, membranes are washed and incubated with horseradish peroxidase-labeled secondary antibodies (Amersham), and then the proteins are detected by SuperSignal West Pico chemiluminescent substrate (Pierce).

T1 sequence (P17706 1-288): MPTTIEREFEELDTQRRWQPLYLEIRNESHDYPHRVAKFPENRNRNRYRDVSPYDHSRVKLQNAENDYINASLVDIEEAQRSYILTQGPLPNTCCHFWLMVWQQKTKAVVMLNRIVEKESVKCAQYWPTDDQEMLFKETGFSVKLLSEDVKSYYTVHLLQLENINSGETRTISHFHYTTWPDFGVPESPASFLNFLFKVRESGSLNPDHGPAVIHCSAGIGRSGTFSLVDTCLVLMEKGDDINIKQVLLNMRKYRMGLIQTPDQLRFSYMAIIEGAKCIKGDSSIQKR

C=CC(C)(C)c1cc2cc3c(cc2oc1=O)O[C@H](C(C)(C)OC(C)=O)C3 [(+)-Rutamarin]
IC50 (TC-PTP): 26.8 µM
IC50 (LAR): > 100 µM
GLUT4 protein level ([1]; 8th hour): no obvious increment
GLUT4 protein level ([1]; 48 hours): potently increases
activity of RXR-response element (RXRE) (RXRα:RXRα): dose-dependently enhance
glucose uptake without insulin stimulation (3T3-L1 adipocytes [2]; Rut 20 µM, 8 hours): improves glucose uptake
insulin-induced glucose uptake (3T3-L1 adipocytes [2]; insulin 17 nM, Rut 5–25 µM, C2 10 µM): dose-dependently enhances
GLUT4 translocation in fully differentiated 3T3-L1 adipocytes (3T3-L1 adipocytes [3]): significantly induces
interaction of SRC1 with RXRα (α-galactosidase activity) [4]: dose-dependently enhances
activity of FXR-response element (FXRE) (FXR: RXRα): without influencing
insulin receptor (IR) phosphorylation in epididymis fat tissues (epididymis fat tissues; Rut 2 mg/kg IP, 2 weeks): efficiently improve
mRNA levels of PPARγ:RXRα-regulated genes (pepck, GLUT4 and adiponectin) (epididymis fat tissues; Rut 10 mg/kg, epididymis fat tissues): efficiently increase
GLUT4 expression in epididymis fat tissues (epididymis fat tissues; Rut 2 and 10 mg/kg): increases GLUT4 expression
